Measurements as given in article PMC8615215, “Structural and Biochemical Characterization of Thioredoxin-2 from Deinococcus radiodurans” (Antioxidants, 2021).

Target: T1, DrTrxR (Deinococcus radiodurans, UniProt Q9RSY7)
T1 construct: gene DR_1982; residues 2-325, non-cleavable N-terminal His6 tag (MHHHHHH), pET-22b, expressed in E. coli BL21(DE3), Ni-NTA and size exclusion
Assay: NADPH consumption at […] nm, insulin reduction coupled through DrTrx1 or DrTrx2
Assay type: biochemical
Conditions: 0.1 mM NADPH, 0.1 uM DrTrxR, 0.1 uM DrTrx1 or 0.5 uM DrTrx2, bovine insulin, 50 mM Tris-HCl pH 7.4, room temperature

T1 sequence (Q9RSY7 entry or part of it): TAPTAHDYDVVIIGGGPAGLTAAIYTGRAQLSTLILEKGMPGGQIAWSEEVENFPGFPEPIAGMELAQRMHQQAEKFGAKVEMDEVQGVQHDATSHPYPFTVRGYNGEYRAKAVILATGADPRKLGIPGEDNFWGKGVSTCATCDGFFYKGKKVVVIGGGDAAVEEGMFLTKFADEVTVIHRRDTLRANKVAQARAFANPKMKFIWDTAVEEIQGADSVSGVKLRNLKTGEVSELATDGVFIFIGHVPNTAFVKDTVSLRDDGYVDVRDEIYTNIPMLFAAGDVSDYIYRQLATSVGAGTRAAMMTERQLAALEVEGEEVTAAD

For `NC(=O)C1=CN([C@@H]2O[C@H](COP(=O)(O)OP(=O)(O)OC[C@H]3O[C@@H](n4cnc5c(N)ncnc54)[C@H](OP(=O)(O)O)[C@@H]3O)[C@@H](O)[C@H]2O)C=CC1` [NADPH], the “NADPH consumption at 340 nm, insulin reduction coupled through DrTrx1 or DrTrx2” value was “In the presence of DrTrxR/NADPH, both DrTrx1 and DrTrx2 caused a notable decrease”.
